Measured values: PubChem BioAssay (NCI)
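1) Cells in 96-well plates. 2) Compound, 48 h, 5 concentrations. 3) Linear interpolation between surrounding doses. 4) Unreached endpoint = highest concentration. TGI marks complete inhibition of growth.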

Legend:
Assay in all cases: growth of human tumour cells (NCI), 48 h
[1] = test system: 786-0 renal
[2] = test system: A549 NSCLC
[3] = test system: ACHN renal
[4] = test system: BT-549 breast
[5] = test system: CAKI-1 renal
[6] = test system: CCRF-CEM leukemia
[7] = test system: COLO 205 colon
[8] = test system: DU-145 prostate
[9] = test system: EKVX NSCLC
[10] = test system: HCC-2998 colon
[11] = test system: HCT-116 colon
[12] = test system: HCT-15 colon
[13] = test system: HL-60(TB) leukemia
[14] = test system: HOP-62 NSCLC
[15] = test system: HOP-92 NSCLC
[16] = test system: HS 578T breast
[17] = test system: HT29 colon
[18] = test system: IGROV1 ovarian
[19] = test system: K-562 leukemia
[20] = test system: KM12 colon
[21] = test system: LOX IMVI melanoma
[22] = test system: M14 melanoma
[23] = test system: MALME-3M melanoma
[24] = test system: MCF7 breast
[25] = test system: MDA-MB-231 breast
[26] = test system: MDA-MB-435
[27] = test system: MDA-N
[28] = test system: MOLT-4 leukemia
[29] = test system: NCI-H226 lung
[30] = test system: NCI-H23 lung
[31] = test system: NCI-H460 lung
[32] = test system: NCI-H522 lung
[33] = test system: NCI/ADR-RES ovarian
[34] = test system: OVCAR-3 ovarian
[35] = test system: OVCAR-4 ovarian
[36] = test system: OVCAR-5 ovarian
[37] = test system: OVCAR-8 ovarian
[38] = test system: PC-3 prostate
[39] = test system: RPMI-8226 leukemia
[40] = test system: RXF 393 renal
[41] = test system: SF-268 CNS
[42] = test system: SF-295 CNS
[43] = test system: SF-539 CNS
[44] = test system: SK-MEL-2 melanoma
[45] = test system: SK-MEL-5 melanoma
[46] = test system: SK-OV-3 ovarian
[47] = test system: SN12C renal
[48] = test system: SNB-19 CNS
[49] = test system: SR leukemia
[50] = test system: SW-620 colon
[51] = test system: T-47D breast
[52] = test system: TK-10 renal
[53] = test system: U251 CNS
[54] = test system: UACC-62 melanoma
[55] = test system: UO-31 renal
[56] = test system: SK-MEL-28 melanoma
[57] = test system: SNB-75 CNS
[58] = test system: UACC-257 melanoma
[59] = test system: A498 renal

Measured: TGI

CCOC(=O)C1C(=O)C=C(c2cc(C)ccc2O)CC1c1cccc(Cl)c1 (stereo unspecified)
54.2 µM: [33]
69 µM: [20]
> 100 µM: [1] | [4] | [5] | [8] | [9] | [11] | [14] | [22] | [28] | [31] | [34] | [36] | [37] | [38] | [50] | [51]
74.5 µM: [24]
88.6 µM: [30]
65.9 µM: [55]
95.9 µM: [47]
94.7 µM: [6]
61.5 µM: [15]
63.5 µM: [13]
8.23 µM: [26]
57.7 µM: [52]
49.1 µM: [2]
54.5 µM: [40]
83.4 µM: [25]
73.5 µM: [29]
86.7 µM: [17]
53.8 µM: [19]
46.7 µM: [44]
48.3 µM: [39]
13.2 µM: [12]
58 µM: [16]
51.7 µM: [3]
37 µM: [32]
69.8 µM: [10]
57.4 µM: [21]
97.3 µM: [41]
75.6 µM: [23]
29.8 µM: [27]
34.9 µM: [7] | [49]
51.1 µM: [18]
44.2 µM: [48]
50.5 µM: [45]
40.7 µM: [53]
47 µM: [43] | [54]
79.7 µM: [46]
76.3 µM: [42]
56.2 µM: [35]

COc1ccc(/C=C2\Oc3cc(OC(C)=O)ccc3C2=O)cc1
86.7 µM: [5]
45.1 µM: [32]
> 100 µM: [1] | [2] | [3] | [4] | [6] | [7] | [8] | [9] | [10] | [11] | [12] | [13] | [14] | [16] | [18] | [19] | [20] | [22] | [24] | [25] | [26] | [27] | [28] | [29] | [30] | [31] | [33] | [34] | [35] | [37] | [38] | [39] | [40] | [41] | [42] | [43] | [56] | [45] | [46] | [47] | [48] | [57] | [49] | [50] | [51] | [52] | [53] | [58] | [54] | [55]

c1coc(C2=Nc3cccc4cccc(c34)N2)c1
64.7 µM: [55]
84.9 µM: [35]
57.6 µM: [3]
56.3 µM: [11]
65.4 µM: [13] | [34]
57.3 µM: [17]
44.4 µM: [33]
23 µM: [51]
28 µM: [7]
76.9 µM: [40]
40.8 µM: [20]
60.5 µM: [15]
39.3 µM: [43]
> 100 µM: [1] | [2] | [4] | [5] | [6] | [8] | [9] | [10] | [12] | [14] | [16] | [18] | [19] | [21] | [22] | [23] | [24] | [25] | [26] | [27] | [28] | [29] | [30] | [31] | [37] | [39] | [41] | [42] | [44] | [56] | [45] | [46] | [47] | [48] | [57] | [49] | [50] | [52] | [53] | [58] | [54]
23.2 µM: [32]
80.8 µM: [38]

C=CCN1CCN([C@H](c2ccc(C(=O)N(CC)CC)cc2)c2cccc(OC)c2)CC1
> 25 µM: [1] | [59] | [2] | [3] | [4] | [5] | [7] | [8] | [9] | [11] | [12] | [13] | [14] | [15] | [16] | [17] | [18] | [20] | [22] | [23] | [24] | [25] | [26] | [27] | [28] | [29] | [30] | [32] | [33] | [34] | [35] | [36] | [37] | [38] | [39] | [41] | [42] | [43] | [44] | [56] | [45] | [46] | [47] | [48] | [49] | [50] | [51] | [53] | [54] | [55]

CC1=CC(C)(C)[C@H]2O[C@@]3(O)C[C@]4(C)[C@H]5C[C@@](C(C)C)(O[C@H]4c4ccoc4)O[C@H]4[C@]5(C3)O[C@@]1(O)[C@]24O
64.6 µM: [57]
> 100 µM: [1] | [2] | [3] | [4] | [5] | [6] | [7] | [8] | [9] | [10] | [11] | [12] | [13] | [15] | [16] | [17] | [18] | [19] | [20] | [21] | [22] | [23] | [24] | [25] | [26] | [27] | [28] | [29] | [30] | [33] | [34] | [35] | [36] | [37] | [38] | [39] | [40] | [41] | [42] | [43] | [44] | [56] | [45] | [46] | [47] | [48] | [49] | [50] | [51] | [52] | [53] | [58] | [54] | [55]
45.8 µM: [32]
82 µM: [14]
